Tests used:
Format in all cases: biochemical
[1] = target: T1, Kit (Homo sapiens, UniProt P10721); test: AlphaScreen kinase assay, Kit; settings: read-out: IC50, activity toward kinase Kit
T1 construct: P1332.N6 BI PTP KIT M552-K948-X COD; His6 (N); made in house; host or cells: E. coli (PTP1B co-expressed)
Source text: AlphaScreen assay was used to screen additional kinases. The assay is similarly dependent on the phosphorylation of a peptide substrate. In this assay, an antibody that recognizes phosphorylated substrate is bound to an acceptor bead. The peptide substrate is attached to biotin, which binds to a donor head that contains streptavidin. Thus phosphorylated substrate is bound by antibody and streptavidin, bringing the donor and acceptor heads into close proximity when kinase is not inhibited. The donor produces singlet oxygen which results in emission from the acceptor when they are in close proximity. Conversely, when kinase is inhibited, the donor and acceptor beads are not associated and the emission from the acceptor is reduced.
AlphaScreen assays were done using compounds dissolved in DMSO to a concentration of 20 mM. The compounds were diluted accordingly to the desired final concentrations in each sample well, using 1:3 serial dilution for a total of 8 concentration points. Plates were prepared such that each kinase reaction is 20 μl in 1× kinase buffer, 5% DMSO and 10 μM ATP. After incubation of the kinase reaction for 1 hour at room temperature, 5 μl of donor beads in stop buffer (50 mM EDTA in 1× kinase buffer) was added, the sample was mixed and incubated for 20 minutes at room temperature before adding 5 μl of acceptor beads in stop buffer. The samples were incubated for 60 minutes at room temperature and the signal per well was read on AlphaQuest reader.

[2] = target: T2, FGFR1 (Homo sapiens, UniProt P11362, C488A/C584S); test: AlphaScreen kinase assay, FGFR1; settings: read-out: IC50, activity toward kinase FGFR
T2 construct: P1351.pET N6 BI-PTP FGFR A458-E765-X C488A, C584S; made in house; host or cells: E. coli (PTP1B co-expressed)
T2 sequence (P11362 458-765 C488A/C584S): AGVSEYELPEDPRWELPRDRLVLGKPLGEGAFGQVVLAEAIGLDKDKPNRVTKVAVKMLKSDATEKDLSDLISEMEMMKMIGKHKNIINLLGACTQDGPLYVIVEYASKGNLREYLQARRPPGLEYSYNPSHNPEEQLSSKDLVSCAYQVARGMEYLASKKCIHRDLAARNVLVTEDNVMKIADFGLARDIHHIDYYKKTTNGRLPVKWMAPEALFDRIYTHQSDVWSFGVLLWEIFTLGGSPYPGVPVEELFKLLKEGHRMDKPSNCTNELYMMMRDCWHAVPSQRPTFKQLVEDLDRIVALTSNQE

[3] = target: T3, Fms (Homo sapiens, UniProt P07333); test: AlphaScreen kinase assay, Fms; settings: read-out: IC50, activity toward kinase Fms
T3 construct: purchased Upstate Biotechnology
T3 sequence (P07333 20-972): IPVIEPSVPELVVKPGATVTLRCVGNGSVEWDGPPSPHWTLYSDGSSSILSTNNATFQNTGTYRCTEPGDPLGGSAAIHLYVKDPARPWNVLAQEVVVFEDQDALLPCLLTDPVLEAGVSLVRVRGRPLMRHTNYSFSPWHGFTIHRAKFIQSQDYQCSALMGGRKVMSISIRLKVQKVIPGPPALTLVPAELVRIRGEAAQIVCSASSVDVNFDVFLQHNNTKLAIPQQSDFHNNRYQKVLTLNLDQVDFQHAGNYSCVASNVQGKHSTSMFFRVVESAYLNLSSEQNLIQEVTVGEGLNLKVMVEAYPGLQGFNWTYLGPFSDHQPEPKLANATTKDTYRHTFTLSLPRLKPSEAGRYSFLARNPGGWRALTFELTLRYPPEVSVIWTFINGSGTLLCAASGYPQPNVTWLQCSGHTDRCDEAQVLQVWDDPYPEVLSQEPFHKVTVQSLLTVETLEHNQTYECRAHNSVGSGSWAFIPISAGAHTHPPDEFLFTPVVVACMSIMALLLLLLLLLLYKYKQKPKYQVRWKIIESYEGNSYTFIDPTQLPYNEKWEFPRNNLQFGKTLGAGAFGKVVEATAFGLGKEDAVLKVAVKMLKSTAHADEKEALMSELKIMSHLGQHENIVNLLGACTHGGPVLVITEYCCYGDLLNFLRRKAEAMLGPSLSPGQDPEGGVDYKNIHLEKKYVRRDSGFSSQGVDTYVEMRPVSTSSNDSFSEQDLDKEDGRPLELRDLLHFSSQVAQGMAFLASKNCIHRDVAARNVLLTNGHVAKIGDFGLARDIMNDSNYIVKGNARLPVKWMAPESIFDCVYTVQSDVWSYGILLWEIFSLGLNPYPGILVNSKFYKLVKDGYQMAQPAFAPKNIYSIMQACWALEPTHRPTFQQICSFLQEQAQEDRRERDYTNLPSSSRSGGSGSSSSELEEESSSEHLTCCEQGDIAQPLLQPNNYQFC

[4] = target: T4, Ret (Homo sapiens, UniProt P07949); test: AlphaScreen kinase assay, Ret; settings: read-out: IC50, activity toward kinase Ret
T4 construct: P1378.pET-SF BI-PTP RET H661-R1012 HIS; made in house
T4 sequence (P07949 with tags, fused parts or gaps): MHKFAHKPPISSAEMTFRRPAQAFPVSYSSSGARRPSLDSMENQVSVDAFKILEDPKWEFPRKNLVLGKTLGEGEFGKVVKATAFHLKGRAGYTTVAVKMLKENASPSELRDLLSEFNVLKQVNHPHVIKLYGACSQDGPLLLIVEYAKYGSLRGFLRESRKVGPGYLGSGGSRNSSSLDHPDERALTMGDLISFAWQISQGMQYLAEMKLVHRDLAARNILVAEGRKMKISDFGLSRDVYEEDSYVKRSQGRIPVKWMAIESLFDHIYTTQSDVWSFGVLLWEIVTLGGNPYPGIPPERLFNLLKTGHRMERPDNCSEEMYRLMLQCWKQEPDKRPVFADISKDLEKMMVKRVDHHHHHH

[5] = target: T5, B-Raf V600E (Homo sapiens, UniProt P15056, V600E); test: AlphaScreen kinase assay, B-Raf V600E; settings: read-out: IC50, activity toward kinase B-Raf V600E
T5 construct: P4254. pFastBacBD-CDC37 BRAF D437-K722-X, V600E; His6 with pFastBac HT leader (TEV site) (N); made in house; host or cells: Sf9 (baculovirus; chaperone CDC37 co-expressed)
T5 sequence (P15056 with tags, fused parts or gaps V600E): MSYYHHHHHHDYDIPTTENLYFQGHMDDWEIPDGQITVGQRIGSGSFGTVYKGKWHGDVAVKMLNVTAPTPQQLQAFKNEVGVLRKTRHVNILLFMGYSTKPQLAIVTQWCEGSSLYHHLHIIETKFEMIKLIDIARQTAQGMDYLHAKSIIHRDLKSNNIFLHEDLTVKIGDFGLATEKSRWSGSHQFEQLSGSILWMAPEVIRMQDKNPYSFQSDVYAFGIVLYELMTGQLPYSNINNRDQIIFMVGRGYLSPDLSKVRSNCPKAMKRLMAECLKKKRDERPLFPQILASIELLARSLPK

[6] = target: T6, Flt1 (Homo sapiens, UniProt P17948); test: AlphaScreen kinase assay, Flt1; settings: read-out: IC50, activity toward kinase Flt1
T6 construct: P1826.pETN6 BI-PTP FLT1 M799-D1165-X WT; His6 (N); made in house; host or cells: E. coli (PTP1B co-expressed)
T6 sequence (P17948 with tags, fused parts or gaps): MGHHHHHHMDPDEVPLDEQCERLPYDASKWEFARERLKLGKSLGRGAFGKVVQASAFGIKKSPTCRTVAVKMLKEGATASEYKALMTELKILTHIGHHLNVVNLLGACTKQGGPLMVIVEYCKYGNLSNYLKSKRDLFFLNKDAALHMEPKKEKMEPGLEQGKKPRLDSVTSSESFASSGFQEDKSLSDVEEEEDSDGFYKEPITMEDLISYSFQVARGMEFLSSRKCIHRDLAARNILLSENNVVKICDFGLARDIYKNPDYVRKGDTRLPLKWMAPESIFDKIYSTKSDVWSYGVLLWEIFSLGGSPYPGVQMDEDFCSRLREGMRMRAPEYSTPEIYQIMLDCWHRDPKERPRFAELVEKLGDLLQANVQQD

T1 sequence (P10721 with tags, fused parts or gaps): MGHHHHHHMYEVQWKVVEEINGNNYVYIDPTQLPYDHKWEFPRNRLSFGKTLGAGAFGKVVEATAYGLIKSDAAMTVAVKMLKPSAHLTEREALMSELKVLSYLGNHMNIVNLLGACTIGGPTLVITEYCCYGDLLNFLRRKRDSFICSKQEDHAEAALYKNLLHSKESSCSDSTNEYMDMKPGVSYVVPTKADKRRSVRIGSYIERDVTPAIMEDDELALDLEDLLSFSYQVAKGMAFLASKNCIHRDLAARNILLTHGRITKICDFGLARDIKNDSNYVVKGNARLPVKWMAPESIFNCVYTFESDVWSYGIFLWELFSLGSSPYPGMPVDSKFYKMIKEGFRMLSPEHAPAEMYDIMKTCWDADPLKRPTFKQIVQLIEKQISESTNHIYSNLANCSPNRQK

Row | Compound | IC50 [1] | IC50 [2] | IC50 [3] | IC50 [4] | IC50 [5] | IC50 [6]
1 | c1cc(Cc2c[nH]c3ncc(-c4ccsc4)cc23)cc(OCCOC2CCCCO2)c1 (centres unmarked) [Compound P-0835] | ≤ 10 µM | ≤ 10 µM | ≤ 10 µM | ≤ 10 µM |  | 
2 | O=C(c1ccc(Nc2ccccc2)nc1)c1c[nH]c2ncccc12 [Compound P-1160] | ≤ 10 µM |  |  |  | ≤ 10 µM | ≤ 10 µM
3 | CCCn1cccc1C(c1c[nH]c2ncc(-c3cccnc3)cc12)n1ccc2cc(-c3cccnc3)cnc21 (centres unmarked) [Compound P-1686] |  |  |  |  |  | ≤ 10 µM
4 | O=C(NCC(F)(F)F)Nc1ccc(F)c(Cc2c[nH]c3ncc(Cl)cc23)c1F [Compound P-1601, 1-[3-(5-Chloro-1H-pyrrolo[2,3-b]pyridin-3-ylmethyl)-2,4-difluoro-phenyl]-3-(2,2,2-trifluoro-ethyl)-urea] |  |  |  |  | ≤ 10 µM | ≤ 10 µM
5 | COc1ccc(C(=O)c2c[nH]c3ncc(-c4cccs4)cc23)c(Cl)c1 [Compound P-0248] | ≤ 10 µM | ≤ 10 µM |  | ≤ 10 µM | ≤ 10 µM | 
6 | CS(=O)(=O)c1cccc(-c2cnc3[nH]cc(Cc4c(F)ccc(NC(=O)NC5CCCC5)c4F)c3c2)c1 [Compound P-1615, 1-Cyclopentyl-3-{2,4-difluoro-3-[5-(3-methanesulfonyl-phenyl)-1H-pyrrolo[2,3-b]pyridin-3-ylmethyl]-phenyl}-urea] |  |  | ≤ 10 µM |  |  | ≤ 10 µM
7 | CCCCNC(=O)Nc1ccc(F)c(Cc2c[nH]c3ncc(Cl)cc23)c1F [Compound P-1587, 1-Butyl-3-[3-(5-chloro-1H-pyrrolo[2,3-b]pyridin-3-ylmethyl)-2,4-difluoro-phenyl]-urea] |  |  | ≤ 10 µM |  |  | ≤ 10 µM
8 | O=C(c1ccc(NCc2ccc(F)cc2)nc1)c1c[nH]c2ncccc12 [Compound P-0491] |  |  | ≤ 10 µM |  |  | ≤ 10 µM
9 | CC(=O)Nc1cccc(-c2cnc3[nH]cc(C(=O)c4cccc(OC(F)(F)F)c4)c3c2)c1 [Compound P-1422, N-{3-[3-(3-Trifluoromethoxy-benzoyl)-1H -pyrrolo[2,3-b]pyridin-5-yl]-phenyl}-acetamide] | ≤ 10 µM |  |  |  |  | ≤ 10 µM
10 | CN(C)c1ccc(Cc2c[nH]c3ncccc23)cc1 [Compound P-0150] |  | ≤ 10 µM |  |  |  | ≤ 10 µM
11 | Oc1ccc(Nc2c[nH]c3ncccc23)c(F)c1 [Compound P-1499, 3-Fluoro-4-(1H-pyrrolo[2,3-b]pyridin-3-ylamino)-phenol] | ≤ 10 µM |  | ≤ 10 µM |  |  | ≤ 10 µM
12 | c1ccc(CNc2ccc(Cc3c[nH]c4ncccc34)cn2)cc1 [Compound P-0733] |  |  | ≤ 10 µM |  |  | ≤ 10 µM
13 | CCCCN(C)C(=O)Nc1ccc(F)c(Cc2c[nH]c3ncc(Cl)cc23)c1F [Compound P-1625, 1-Butyl-3-[3-(5-chloro-1H-pyrrolo[2,3-b]pyridin-3-ylmethyl)-2,4-difluoro-phenyl]-1-methyl-urea] |  | ≤ 10 µM | ≤ 10 µM |  |  | ≤ 10 µM
14 | CC(=O)Nc1cccc(-c2cnc3[nH]cc(C(=O)c4cccc(OC(F)F)c4)c3c2)c1 [Compound P-1424, N-{3-[3-(3-Difluoromethoxy-benzoyl)-1H-pyrrolo[2,3-b]pyridin-5-yl]-phenyl}-acetamide] | ≤ 10 µM | ≤ 10 µM |  |  |  | ≤ 10 µM
15 | Fc1ccc(-c2c[nH]c3ncccc23)c(F)c1 [Compound P-0470] |  |  |  |  |  | ≤ 10 µM
16 | O=C(c1c[nH]c2ccccc12)c1c[nH]c2ncc(Br)cc12 [Compound P-1624] |  | ≤ 10 µM |  |  |  | ≤ 10 µM
17 | COC(=O)Nc1cccc(C(=O)c2c[nH]c3ncc(Cl)cc23)c1 [Compound P-1619] |  |  |  |  |  | ≤ 10 µM

Row | Compound | IC50 [1] | IC50 [2] | IC50 [3] | IC50 [4] | IC50 [5] | IC50 [6]
18 | c1ccc(C(CNCc2c[nH]c3ncccc23)c2ccccc2)cc1 [Compound P-0514] |  |  |  |  |  | ≤ 10 µM
19 | COc1cnc2[nH]cc(Cc3c(F)ccc(NC(=O)NC4CCCC4)c3F)c2c1 [Compound P-1572, 1-Cyclopentyl-3-[2,4-difluoro-3-(5-methoxy-1H-pyrrolo[2,3-b]pyridin-3-ylmethyl)-phenyl]-urea] |  |  | ≤ 10 µM |  | ≤ 10 µM | ≤ 10 µM
20 | Cc1nc(NCc2ccc(C(F)(F)F)cc2)ccc1Cc1c[nH]c2ncccc12 [Compound P-1112] |  |  | ≤ 10 µM |  | ≤ 10 µM | ≤ 10 µM
21 | O=C(Nc1ccc(F)c(Cc2c[nH]c3ncc(Cl)cc23)c1F)N1CCOCC1 [Compound P-1595, Morpholine-4-carboxylic acid [3-(5-chloro-1H-pyrrolo[2,3-b]pyridin-3-ylmethyl)-2,4-difluoro-phenyl]-amide] |  | ≤ 10 µM | ≤ 10 µM |  |  | ≤ 10 µM
22 | Clc1ccc(Nc2c[nH]c3ncccc23)cc1 [Compound P-1491, (4-Chloro-phenyl)-(1H-pyrrolo[2,3-b]pyridin-3-yl)-amine] |  |  | ≤ 10 µM |  |  | ≤ 10 µM
23 | CCOc1ccccc1C(O)c1c[nH]c2ncc(-c3cccnc3)cc12 (centres unmarked) [Compound P-1533] |  |  |  |  |  | ≤ 10 µM
24 | NC(=O)c1cccc(-c2cnc3[nH]ccc3c2)c1 [Compound P-1622, 3-(1H-Pyrrolo[2,3-b]pyridin-5-yl)-benzamide] |  | ≤ 10 µM |  |  |  | ≤ 10 µM
25 | O=S(=O)(NCc1c[nH]c2ncccc12)c1cc(Cl)sc1Cl [Compound P-0603] |  |  |  |  | ≤ 10 µM | ≤ 10 µM
26 | CS(=O)(=O)c1cccc(-c2cnc3[nH]cc(Cc4c(F)ccc(N)c4F)c3c2)c1 [Compound P-1614] |  | ≤ 10 µM |  |  | ≤ 10 µM | ≤ 10 µM
27 | CS(=O)(=O)Nc1ccc(F)c(Cc2c[nH]c3ncccc23)c1F [Compound P-1603, N-[2,4-Difluoro-3-(1H-pyrrolo[2,3-b]pyridin-3-ylmethyl)-phenyl]-methanesulfonamide] |  | ≤ 10 µM |  |  |  | ≤ 10 µM
28 | O=C(c1ccc(Cl)cc1Cl)c1c[nH]c2ncc(-c3ccccc3)cc12 [Compound P-1557] | ≤ 10 µM |  |  |  |  | ≤ 10 µM
29 | O=C(NCCN1CCOCC1)Nc1ccc(F)c(Cc2c[nH]c3ncc(Cl)cc23)c1F [Compound P-1594, 1-[3-(5-Chloro-1H-pyrrolo[2,3-b]pyridin-3-ylmethyl)-2,4-difluoro-phenyl]-3-(2-morpholin-4-yl-ethyl)-urea] |  |  | ≤ 10 µM |  | ≤ 10 µM | ≤ 10 µM
30 | O=C(c1ccccc1)c1c[nH]c2ncc(Br)cc12 [Compound P-0561] | ≤ 10 µM | ≤ 10 µM |  | ≤ 10 µM |  | 
31 | Cc1ccccc1S(=O)(=O)NCc1c[nH]c2ncccc12 [Compound P-0768] |  |  |  |  |  | ≤ 10 µM
32 | O=C(c1c(F)ccc(NC(=O)N2CCOCC2)c1F)c1c[nH]c2ncc(Cl)cc12 [Compound P-1606, Morpholine-4-carboxylic acid [3-(5-chloro-1H-pyrrolo[2,3-b]pyridine-3-carbonyl)-2,4-difluoro-phenyl]-amide] |  |  | ≤ 10 µM |  | ≤ 10 µM | ≤ 10 µM
33 | O=C(c1ccc(NCc2ccc(C(F)(F)F)cc2)nc1)c1c[nH]c2ncccc12 [Compound P-0461] |  |  | ≤ 10 µM |  |  | ≤ 10 µM
34 | CCCCNC(=O)Nc1ccc(F)c(Cc2c[nH]c3ncc(OC)cc23)c1F [Compound P-1571, 1-Butyl-3-[2,4-difluoro-3-(5-methoxy-1H-pyrrolo[2,3-b]pyridin-3-ylmethyl)-phenyl]-urea] |  |  | ≤ 10 µM |  |  | ≤ 10 µM

Reference: patent US8415469B2, “Compounds and methods for kinase modulation, and indications therefor” (Plexxikon Inc., priority 2005, dated 2013)
